In one assay the test system is 143B cells. Kind of assay: Membrane potential measurement by TMRM fluorescence. It counts as cell-based, human. As for the experimental part:
143B cells were seeded at 5 × 10^5 cells per 10 cm^2 well in DMEM containing 10 % FBS. […] The detached cells from each well were incubated in PBS containing 25 pg/mL tetramethylrhodamine, methyl ester (TMRM) and 20 μg/mL Hoescht stain for 20 min at 37 °C then washed twice and re-suspended in 200 μL PBS. TMRM fluorescence was detected using a NucleoCounter® NC 3000 cytometer with excitation at 530 nm and emission at 575 nm, with the Hoescht stain used to check for consistent cell density between samples.

Assay [1] concerns the target isolated bovine heart complex I (Bos taurus, UniProt P03887+P03898+P17694+P42026). Kind of assay: NADH:decylubiquinone oxidoreduction by isolated complex I. It counts as biochemical. Particulars: bovine heart purified mitochondrial complex I, read-out: average % (rate, % of no-inhibitor control). As for the experimental part:
(§1) Complex I and mitochondrial membranes were prepared from Bos taurus (bovine) heart. Intact mitochondria were isolated from rat liver and mouse heart and liver. Membranes were prepared from mouse heart mitochondria by 5 s bursts of sonication at 4 °C and collected by centrifugation (75,000 × g, 1 h).
(§2) Assays were performed at 32 °C in a SpectraMax 96-well plate reader. NADH:decylubiquinone oxidoreduction by complex I at 0.5 μg mL^−1 was measured in 20 mM Tris-HCl (pH 7.2), 0.15 % soy bean asolectin (Avanti Polar Lipids), and 0.15 % 3-((3-cholamidopropyl)dimethylammonium)-1-propanesulfonate (CHAPS, Merck Chemicals Ltd), with 200 μM decylubiquinone and 200 μM NADH, and monitored using ε340–380(NADH) = 4.81 mM^−1 cm^−1 [23]. Catalysis was initiated by addition of NADH and maximal rates determined by linear regression. NADH:O2 oxidoreduction by membranes was measured similarly but using 5 μg mL^−1 membranes in 10 mM Tris-HCl (pH 7.4) and 250 mM sucrose using 200 μM NADH and supplemented with 0.15 mM horse heart cytochrome c (Sigma-Aldrich Ltd.). Succinate:O2 oxidoreduction was measured using 40 μg mL^−1 membranes in 5 mM succinate in 10 mM Tris-HCl (pH 7.4) as described previously. Control experiments included NaCl (to match the ionic strength) or DMSO, as appropriate.
(§3) Experimental values are reported as mean averages ± standard deviation (SD) of technical replicates for large sample sizes and mean averages ± standard error of the mean (SEM) of technical replicates for small sample sizes. Data were analyzed by the unpaired two-tailed Student’s t test. IC50 values were determined using the standard dose-effect relationship (activity (%) = 100 × IC50 / (IC50 + [inhibitor]^m) with the Hill Slope (m) set to unity for purified complex I) and are reported with 95 % confidence intervals.

Assay [2] deals with bovine heart mitochondrial membranes (complex I) (Bos taurus, UniProt P03887+P03898+P17694+P42026). Kind of assay: NADH:O2 oxidoreduction by bovine heart mitochondrial membranes (complexes I-III-IV). The format is biochemical. To be noted: bovine heart mitochondrial membranes, read-out: average % (rate, % of no-inhibitor control). Here is the method:
as §1, §2, §3

In assay [3] the target is mouse heart mitochondrial membranes (complex I) (Mus musculus, UniProt P03888+P03899+Q91WD5+Q9DC70). Kind of assay: NADH:O2 oxidoreduction by mouse heart mitochondrial membranes. It counts as biochemical. To be noted: read-out: average % (rate, % of no-inhibitor control). Here is the method:
as §1, §2, §3

The structures appear in SMILES notation. Where “and” joins values, the source holds several entries; their conditions need not be identical. Equal values may be shown once.

Sequence of bovine heart mitochondrial membranes (complex I) (P42026 38-216): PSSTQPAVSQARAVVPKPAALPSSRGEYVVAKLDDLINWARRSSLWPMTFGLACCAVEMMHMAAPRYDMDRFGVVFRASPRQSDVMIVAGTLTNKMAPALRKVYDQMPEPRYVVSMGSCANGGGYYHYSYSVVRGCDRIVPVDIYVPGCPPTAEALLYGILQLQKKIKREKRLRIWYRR
Sequence of bovine heart mitochondrial membranes (complex I) (P17694 34-463): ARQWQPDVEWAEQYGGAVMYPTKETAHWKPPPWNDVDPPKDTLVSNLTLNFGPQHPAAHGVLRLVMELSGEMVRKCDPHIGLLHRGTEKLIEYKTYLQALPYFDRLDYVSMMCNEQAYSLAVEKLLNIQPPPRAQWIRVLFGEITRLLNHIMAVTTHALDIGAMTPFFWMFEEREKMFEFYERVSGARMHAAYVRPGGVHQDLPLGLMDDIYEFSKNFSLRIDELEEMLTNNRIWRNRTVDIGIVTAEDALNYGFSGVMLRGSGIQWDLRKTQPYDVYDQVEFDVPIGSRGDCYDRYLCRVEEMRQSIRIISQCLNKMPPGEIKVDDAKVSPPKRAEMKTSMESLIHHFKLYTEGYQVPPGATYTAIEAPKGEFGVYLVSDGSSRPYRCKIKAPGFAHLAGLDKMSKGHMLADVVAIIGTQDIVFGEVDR
Sequence of bovine heart mitochondrial membranes (complex I) (P03887 whole entry): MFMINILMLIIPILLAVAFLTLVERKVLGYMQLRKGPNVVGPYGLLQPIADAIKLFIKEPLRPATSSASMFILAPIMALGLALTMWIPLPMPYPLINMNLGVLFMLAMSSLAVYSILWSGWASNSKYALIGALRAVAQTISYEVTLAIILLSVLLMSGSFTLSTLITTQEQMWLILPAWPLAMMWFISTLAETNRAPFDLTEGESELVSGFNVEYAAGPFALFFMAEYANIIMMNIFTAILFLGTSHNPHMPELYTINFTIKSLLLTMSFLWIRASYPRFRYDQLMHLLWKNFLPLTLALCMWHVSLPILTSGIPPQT
Sequence of bovine heart mitochondrial membranes (complex I) (P03898 whole entry): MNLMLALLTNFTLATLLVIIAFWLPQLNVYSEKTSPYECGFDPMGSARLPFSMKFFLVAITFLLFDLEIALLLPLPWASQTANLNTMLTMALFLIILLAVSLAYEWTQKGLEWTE
Sequence of isolated bovine heart complex I (P42026 38-216): as the sequence (P42026 38-216) above
Sequence of isolated bovine heart complex I (P17694 34-463): as the sequence (P17694 34-463) above
Sequence of isolated bovine heart complex I (P03898 whole entry): as the sequence (P03898 whole entry) above
Sequence of isolated bovine heart complex I (P03887 whole entry): as the sequence (P03887 whole entry) above
Sequence of mouse heart mitochondrial membranes (complex I) (P03899 whole entry): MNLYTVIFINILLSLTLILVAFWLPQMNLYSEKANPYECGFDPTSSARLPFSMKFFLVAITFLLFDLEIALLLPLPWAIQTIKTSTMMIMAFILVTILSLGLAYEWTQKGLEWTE
Sequence of mouse heart mitochondrial membranes (complex I) (P03888 whole entry): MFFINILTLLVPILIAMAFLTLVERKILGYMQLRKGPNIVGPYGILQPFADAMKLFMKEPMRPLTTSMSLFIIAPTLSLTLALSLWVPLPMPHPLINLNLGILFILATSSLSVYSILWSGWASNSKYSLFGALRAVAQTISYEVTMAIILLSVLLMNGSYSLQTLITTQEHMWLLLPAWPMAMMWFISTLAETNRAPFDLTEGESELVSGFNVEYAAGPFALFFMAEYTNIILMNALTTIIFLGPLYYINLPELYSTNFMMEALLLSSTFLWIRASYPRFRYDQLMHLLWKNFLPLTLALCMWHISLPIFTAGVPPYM
Sequence of mouse heart mitochondrial membranes (complex I) (Q9DC70 36-224): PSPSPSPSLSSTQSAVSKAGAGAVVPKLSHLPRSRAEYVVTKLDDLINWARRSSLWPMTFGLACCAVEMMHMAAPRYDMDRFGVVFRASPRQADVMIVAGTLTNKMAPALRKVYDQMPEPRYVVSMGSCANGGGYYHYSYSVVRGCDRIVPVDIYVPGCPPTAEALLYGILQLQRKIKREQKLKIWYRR
Sequence of mouse heart mitochondrial membranes (complex I) (Q91WD5 34-463): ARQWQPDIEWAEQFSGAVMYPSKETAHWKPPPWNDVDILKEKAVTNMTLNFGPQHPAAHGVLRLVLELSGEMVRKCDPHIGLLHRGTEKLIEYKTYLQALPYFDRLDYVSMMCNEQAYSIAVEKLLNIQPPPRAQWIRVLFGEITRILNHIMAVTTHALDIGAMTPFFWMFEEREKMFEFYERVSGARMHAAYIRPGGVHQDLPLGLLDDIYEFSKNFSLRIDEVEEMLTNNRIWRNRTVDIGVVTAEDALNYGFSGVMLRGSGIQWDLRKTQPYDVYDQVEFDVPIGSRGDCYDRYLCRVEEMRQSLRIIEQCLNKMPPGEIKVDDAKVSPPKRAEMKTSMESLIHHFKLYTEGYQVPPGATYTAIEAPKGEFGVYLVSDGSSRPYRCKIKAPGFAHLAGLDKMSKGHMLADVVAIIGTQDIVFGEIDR

Consider `N#CC(C#N)=NNc1ccc(OC(F)(F)F)cc1` [FCCP, carbonyl cyanide-4-(trifluoromethoxy)phenylhydrazone], for which, in the assay on 143B cells (after 6.5 h, phenformin at IC50/10 (34 μM), FCCP at 1 μM, n = 3), the “TMRM fluorescence, % of the control value” was determined as 13.43 ± 1.7%. Also, in the assay with 143B cells (individual replicates, phenformin 6.5 hours), the “mean-y (TMRM)” value is 1862.7 and 2673.4 and 1873.5. For the same compound, in the assay on 143B cells (n 3, phenformin 6.5 hours), the TMRM average is given as 2136.53 and the “TMRM average, % control” value is listed as 13.43 % control.
Regarding `N=C(N)N=C(N)Nc1ccccc1` [compound2], the remaining activity at 50 µM in assay [1] (inhibitor 0.05 mM) amounted to 89%; in assay [2] (inhibitor 0.05 mM) it was 80.9%; in assay [3] (inhibitor 0.05 mM), 91.6%. For the same compound, in assay [1] (inhibitor 0.10 mM), the remaining activity at 100 µM turned out to be 82.1%. The remaining activity at 200 µM in assay [1] (inhibitor 0.20 mM) came out at 70%. Further, the remaining activity at 400 µM in assay [1] (inhibitor 0.40 mM) was 50.6%. Besides, in assay [1] (inhibitor 1.00 mM), the remaining activity at 1000 µM amounted to 33.6%. Further, in assay [1] (inhibitor 2.00 mM), the remaining activity at 2000 µM came out at 17.4%. The remaining activity at 2500 µM in assay [1] (inhibitor 2.50 mM) is 15.2%; in assay [2] (inhibitor 2.50 mM), 21.2%; in assay [3] (inhibitor 2.50 mM), 27%. The remaining activity at 25 µM in assay [2] (inhibitor 0.025 mM) was 91.2%; in assay [3] (inhibitor 0.025 mM), 100%. For the same compound, in assay [2] (inhibitor 0.12 mM), the remaining activity at 120 µM worked out at 74.7%. The remaining activity at 250 µM in assay [2] (inhibitor 0.25 mM) came out at 59.3%; in assay [3] (inhibitor 0.25 mM), 81.9%. The remaining activity at 500 µM in assay [2] (inhibitor 0.50 mM) came to 43.6%; in assay [3] (inhibitor 0.50 mM), 59.6%. Besides, the remaining activity at 1250 µM is 32% in assay [2] (inhibitor 1.25 mM) and 40.4% in assay [3] (inhibitor 1.25 mM). In addition, the remaining activity at 130 µM in assay [3] (inhibitor 0.13 mM) came out at 95.5%.

For the origin of these results see PMC4977651, “Molecular features of biguanides required for targeting of mitochondrial respiratory complex I and activation of AMP-kinase” (BMC Biology, 2016).
